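Results reflect a 48-hour exposure of cells in 96-well plates to compound at five concentrations. GI50 marks 50% less growth.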 Activity calls are given as the source filed them. Cut-off read from the data, not from the text of the source: active = GI50 up to about 1.1 µM and inactive = higher.
Experiments:
Assay in all cases: growth of human tumour cells (NCI), 48 h
SF-295 = tested on: SF-295
MCF7 = tested on: MCF7
IGROV-1 = tested on: IGROV-1
SK-OV-3 = tested on: SK-OV-3
CAKI-1 = tested on: CAKI-1
ACHN = tested on: ACHN
SR = tested on: SR
SNB-75 = tested on: SNB-75
K562 = tested on: K562
HT-29 = tested on: HT-29
LOX IMVI = tested on: LOX IMVI
RXF 393 = tested on: RXF 393
OVCAR-8 = tested on: OVCAR-8
SW-620 = tested on: SW-620
UACC-62 = tested on: UACC-62
T47D = tested on: T47D
BT-549 = tested on: BT-549
SK-MEL-5 = tested on: SK-MEL-5
CCRF-CEM = tested on: CCRF-CEM

SMILES	GI50 (SF-295)	GI50 (MCF7)	GI50 (IGROV-1)	GI50 (SK-OV-3)	GI50 (CAKI-1)	GI50 (ACHN)	GI50 (SR)	GI50 (SNB-75)	GI50 (K562)	GI50 (HT-29)	GI50 (LOX IMVI)	GI50 (RXF 393)	GI50 (OVCAR-8)	GI50 (SW-620)	GI50 (UACC-62)	GI50 (T47D)	GI50 (BT-549)	GI50 (SK-MEL-5)	GI50 (CCRF-CEM)
CC1(c2cccs2)CC(c2cccs2)=C(C#N)C(=C(C#N)C#N)N1 (stereo not given)	16.9 µM (inactive)	18.5 µM (inactive)	17.7 µM (inactive)	21.6 µM (inactive)	19.7 µM (inactive)	17.5 µM (inactive)	18 µM (inactive)	18.8 µM (inactive)	23 µM (inactive)	17.9 µM (inactive)	16.1 µM (inactive)	18.3 µM (inactive)	17.3 µM (inactive)	11.4 µM (inactive)	15 µM (inactive)	16.6 µM (inactive)	21.5 µM (inactive)	14.6 µM (inactive)	0.519 µM (active)
COC(=O)c1c2c(cc3c1CC1(Cc4ccc(C(C)=O)cc4C1)C3)CCC2 (stereo not given)	40.5 µM (inactive)	37.3 µM (inactive)	87.5 µM (inactive)	63.2 µM (inactive)	53.3 µM (inactive)	66.8 µM (inactive)	20.7 µM (inactive)	30.4 µM (inactive)	14.9 µM (inactive)	19.5 µM (inactive)	21.1 µM (inactive)	20.2 µM (inactive)	68.9 µM (inactive)	28.3 µM (inactive)	35.7 µM (inactive)	31.1 µM (inactive)	56.8 µM (inactive)	18 µM (inactive)	27.7 µM (inactive)
C/N=c1\sc2c(n1C)C(=O)c1ccccc1C2=O	1.54 µM (inactive)	1.65 µM (inactive)	6.78 µM (inactive)	31.2 µM (inactive)	8.41 µM (inactive)	5.81 µM (inactive)	3.75 µM (inactive)	2.06 µM (inactive)	3.37 µM (inactive)	3.04 µM (inactive)	1.27 µM (inactive)	3.08 µM (inactive)	3.2 µM (inactive)	2.09 µM (inactive)	2.11 µM (inactive)	3.78 µM (inactive)	1.76 µM (inactive)	1.27 µM (inactive)	4.15 µM (inactive)
CC(C)Oc1cc(O)c2c(c1)OCC=C2CCC(=O)O	43.5 µM (inactive)	13.9 µM (inactive)	35.7 µM (inactive)	49 µM (inactive)	37.2 µM (inactive)	22.1 µM (inactive)	34 µM (inactive)	31 µM (inactive)	28.4 µM (inactive)	19.9 µM (inactive)	33.1 µM (inactive)	69.5 µM (inactive)	36.1 µM (inactive)	27.8 µM (inactive)	26.9 µM (inactive)	39.3 µM (inactive)	31.3 µM (inactive)	18.4 µM (inactive)	22.8 µM (inactive)
Cc1ccc2[nH]/c(=N/S(=O)(=O)c3cc(C)c(Cl)cc3S)[nH]c2c1	49.5 µM (inactive)	64.1 µM (inactive)	34.4 µM (inactive)	> 100 µM (inactive)	48.1 µM (inactive)	41.2 µM (inactive)	31.6 µM (inactive)	25.1 µM (inactive)	50.2 µM (inactive)	> 100 µM (inactive)	25.4 µM (inactive)	> 100 µM (inactive)	93.1 µM (inactive)	43.8 µM (inactive)	> 100 µM (inactive)	44.9 µM (inactive)	> 100 µM (inactive)	31.3 µM (inactive)	21.4 µM (inactive)
Cn1c(S)nnc1-c1csc(-c2ccc(Cl)cc2)n1	15.6 µM (inactive)	37.2 µM (inactive)	16 µM (inactive)	17.6 µM (inactive)	23.4 µM (inactive)	18.7 µM (inactive)	> 100 µM (inactive)	18.7 µM (inactive)	> 100 µM (inactive)	> 100 µM (inactive)	21.7 µM (inactive)	19 µM (inactive)	21.8 µM (inactive)	32.6 µM (inactive)	23.9 µM (inactive)	35.3 µM (inactive)	22.1 µM (inactive)	> 100 µM (inactive)	> 100 µM (inactive)
CC(C)(C)n1[nH]c(=O)n(C(C)(C)C)c1=O	> 100 µM (inactive)	> 100 µM (inactive)		> 100 µM (inactive)	> 100 µM (inactive)	> 100 µM (inactive)	> 100 µM (inactive)	> 100 µM (inactive)	> 100 µM (inactive)		> 100 µM (inactive)	> 100 µM (inactive)		> 100 µM (inactive)	> 100 µM (inactive)	> 100 µM (inactive)	> 100 µM (inactive)	> 100 µM (inactive)	> 10 µM (inactive)
